# Key:
# [1] = patients taking 20-80 mg/day Prozac; cited from earlier work
# [2] = Serum fluoxetine levels by liquid chromatography with fluorescence detection; type: in vivo, mouse; conditions: Balb/cJ mice
# Protocol: Fluoxetine was a generous gift from Lilly (Indianapolis, Ind.), and was delivered ad libitum in the drinking water. Fluoxetine was dissolved in tap water and changed weekly. For initial strain comparison studies, daily drinking was measured and the concentration of fluoxetine solutions were adjusted to deliver 0, 5, or 10 mg/kg/day of fluoxetine to each strain. For subchronic and chronic studies in BALB/cJ mice, 80-mg/L, 160 mg/L, and 240 mg/L fluoxetine was given, and drinking was recorded throughout the study. Fluoxetine plasma levels were determined by liquid chromatography with fluorescence detection (Suckow et al., 1992) for chronically treated Balb/cJ mice. 5-methoxy-3(1,2,3,6)tetrahydropyridin-4-yl-1H-indole (RU24969) was obtained from Tocris Cookson (Ellisville, Mo.), dissolved in saline, and delivered i.p. (5 ml/kg) with 26 gauge needles. Both drugs were protected from light.
# BALB/cJ mice = assay: Open field test, chronic vs. subchronic fluoxetine; type: in vivo, mouse
# Protocol: For chronic fluoxetine studies in BALB/cJ mice, 60 male BALB/cJ mice were tested in the OF for 30 min on days 19 or 20 of chronic fluoxetine treatment. Mice were then pretested and tested in the modified FST on days 21 and 22, respectively. Animals were then allowed to adapt to being singly housed, and were trained for NIH on days 25-27. Home cage and novel cage testing occurred on days 28 and 29, respectively. Mice were then assessed for PPI on days 34 or 35.
# Studies of subchronic fluoxetine were conducted using separate groups of 60 male BALB/cJ mice to prevent fluoxetine treatment from exceeding one week. One group was tested in the OF after one day of subchronic fluoxetine treatment. Mice were then pretested after 6 and tested after 7 days of subchronic fluoxetine treatment in the modified FST. A second group of BALB/cJ mice began fluoxetine treatment after being singly housed. They were then tested in the NIH test after 4 (home) and 5 (novel) days of subchronic fluoxetine treatment. A third group was tested for PPI after one or two days of subchronic fluoxetine treatment.
# Open field test: Motor activity was quantified in four Plexiglas OF boxes 43 x 43 cm (MED Associates, Georgia, Vt.). Two sets of 16 pulse-modulated infrared photobeams were placed on opposite walls 2.5-cm apart to record x-y ambulatory movements. Activity chambers were computer interfaced for data sampling at 100-ms resolution. The computer defined grid lines that divided each OF into center and surround regions, with each of four lines being 11 cm from each wall. Dependent measures were the number of entries into the center, the distance traveled in the center, total time spent in the center, and distance traveled in the center divided by total distance traveled. Overall motor activity was quantified as the total distance traveled (cm).
# Open field test: For Experiment 1, two-factor ANOVAs with fluoxetine as a between-subject factor and day as a within-subject factor were applied to five measures for each strain: time spent in the center, distance traveled in the center, center distance/total distance traveled, entries into the center, and total distance traveled. Main effects of fluoxetine or significant interactions of fluoxetine and day were resolved using post-hoc ANOVAs with adjusted p-values and/or Newman-Keuls post-hoc tests. Subchronic and chronic experiments in Balb/cJ mice were analyzed using one-way ANOVAs with fluoxetine as a between-subjects factor and Newman-Keuls post-hoc tests for the same variables. Because data deviated substantially from a normal distribution due to low activity levels of Balb/cJ mice, analyses were applied to log transformed data.
# Remaining significant effects of fluoxetine indicate independence between measures of locomotor activity and center measures.
# [3] = test system: BALB/cJ, DBA/2J, C57BL/6J, and 129SvEv mice; assay: Modified forced swim test, strain comparison; type: in vivo, mouse
# Protocol: For the strain comparison study, 36 male mice of four strains (BALB/cJ, DBA/2J, C57BL/6J, 129SvEv) were subjects for a total of 144 mice. Mice were tested in the OF beginning on day 30 or 33 of chronic fluoxetine treatment. Mice were tested for 15 min on three consecutive days to maximize activity levels. Mice were then tested in the modified FST on day 36 or 37.
# Modified forced swim test: Mice were placed into 19 cm diameter plastic buckets which were 23 cm deep filled with 23°-25° C. water, and videotaped for six minutes. Only the last four minutes were scored for four measures: swimming, immobility, climbing, or other. The predominant behavior was recorded every 5 sec. For chronic and subchronic fluoxetine studies in BALB/cJ mice, mice were pre-exposed to the FST for 6 min 24 hours before test day to increase sensitivity for detecting antidepressant behavioral effects (Borsini et al., 1989).
# Modified forced swim test: Two-factor ANOVAs with fluoxetine as a between-subjects factor and block (1 min intervals) as a within-subject factor were applied to three different measures: swimming, immobility, and climbing. Significant main effects of fluoxetine and interactions were resolved using post-hoc ANOVAs with adjusted p-values, and/or Newman-Keuls post-hoc tests.
# [4] = chronic 18 mg/kg/day vs controls
# [5] = BALB/cJ mice, chronic 10 mg/kg/day, relative to 5 mg/kg/day and controls
smiles,measurement,setting,value
CNCCC(Oc1ccc(C(F)(F)F)cc1)c1ccccc1 (stereo not drawn) [fluoxetine],range of plasma levels found in patients,[1],100 to 700 ng/mL
same,Serum fluoxetine levels,[2]; chronic fluoxetine 10 mg/kg/day (80 mg/L drinking water),170.3 ± 57.8 ng/mL
same,Serum fluoxetine levels,[2]; chronic fluoxetine 18 mg/kg/day (160 mg/L drinking water),563.4 ± 118.4 ng/mL
same,Serum fluoxetine levels,[2]; chronic fluoxetine 25 mg/kg/day (240 mg/L drinking water),1779.2 ± 364.9 ng/mL
same,log of center entries,BALB/cJ mice; chronic 10 mg/kg/day,lower values than groups receiving 18 mg/kg/day and 25 mg/kg/day
same,"center entries, without logarithmic transformation",BALB/cJ mice; [4],made more center entries
same,"center/total distance, without logarithmic transformation",BALB/cJ mice; [4],trend for higher center/total distance values
same,log of center distance,BALB/cJ mice; [4],significantly higher values than controls
same,log of center distance/log total distance traveled,BALB/cJ mice; [4],significantly higher values than controls
same,log of center entries,BALB/cJ mice; [4],significantly higher values than controls
same,log of time in the center,BALB/cJ mice; chronic fluoxetine,no significant effect of drug
same,total locomotor activity (log transformed),"BALB/cJ mice; chronic fluoxetine 10, 18, 25 mg/kg/day, 30 min test",did not alter total locomotor activity
same,"total locomotor activity, without logarithmic transformation","BALB/cJ mice; chronic fluoxetine, all doses",remain unaffected by all doses of drug
same,any measures in the OF,"BALB/cJ mice; subchronic (one day) fluoxetine, untransformed or log transformed",no differences in any measures in the OF
same,immobility,[3]; [5],decreased immobility
same,swimming,[3]; [5],increased swimming
same,sensitivity to chronic treatment in the modified FST across strains,"[3]; BALB/cJ, DBA/2J, C57BL/6J, 129SvEv, chronic 5 or 10 mg/kg/day",BALB/cJ was the only strain showing sensitivity
same,climbing,[3]; chronic fluoxetine 5 or 10 mg/kg/day,No effects

# Reference: patent US20050186137A1, “Novelty-induced hypophagia-based assays for identifying agents to treat anxiety and depression” (priority 2003, published 2005)
